Test results: patent US20230115274A1, “COMPOUNDS AND COMPOSITIONS FOR TREATING CONDITIONS ASSOCIATED WITH STING ACTIVITY” (IFM Due, Inc., priority 2019, published 2023)

Target: T1, hSTING (Homo sapiens, UniProt Q86WV6, G230A/H232R/R293Q/R71H)
T1 construct: host or cells: THP1-Dual KO-IFNAR2 cells
Assay: STING reporter assay (luciferase) in THP1-Dual KO-IFNAR2 cells stimulated with 2′3′cGAMP
Format: cell-based
Settings: 2′3′cGAMP 15 μM, 24 h, class symbols
Procedure: STING pathway activation by the compounds described herein was measured using THP1-Dual™ cells (KO-IFNAR2).
THP1-Dual™ KO-IFNAR2 Cells (obtained from invivogen) were maintained in RPMI, 10% FCS, 5 ml P/S, 2 mM L-glut, 10 mM Hepes, and 1 mM sodium pyruvate. Compounds were spotted in empty 384 well tissue culture plates (Greiner 781182) by Echo for a final concentration of 0.0017-100 μM. Cells were plated into the TC plates at […], 2×10E6 cells/mL. For activation with STING ligand, 2′3′cGAMP (MW 718.38, obtained from Invivogen), was prepared in Optimem media.
The following solutions were prepared for each 1×384 plate: • Solution A: 2 mL Optimem with one of the following stimuli: • […] • Solution B: 2 mL Optimem with 60 μL Lipofectamine 2000->Incubate 5 min at RT
2 mL of solution A and 2 ml Solution B was mixed and incubated for 20 min at room temperature (RT). 20 uL of transfection solution (A+B) was added on top of the plated cells, with a final 2′3′cGAMP concentration of 15 μM. The plates were then centrifuged immediately at 340 g for 1 minute, after which they were incubated at 37° C., 5% CO2, >98% humidity for 24 h. Luciferase reporter activity was then measured. EC50 values were calculated by using standard methods known in the art.
Luciferase reporter assay: 10 μL of supernatant from the assay was transferred to white 384-plate with flat bottom and squared wells. One pouch of QUANTI-Luc™ Plus was dissolved in 25 mL of water. 100 μL of QLC Stabilizer per 25 mL of QUANTI-Luc™ Plus solution was added. 50 μL of QUANTI-Luc™ Plus/QLC solution per well was then added. Luminescence was measured on a Platereader (e.g., Spectramax I3X (Molecular Devices GF3637001)).
Luciferase reporter activity was then measured. EC50 values were calculated by using standard methods known in the art.

T1 sequence (Q86WV6 whole entry R71H/G230A/H232R/R293Q): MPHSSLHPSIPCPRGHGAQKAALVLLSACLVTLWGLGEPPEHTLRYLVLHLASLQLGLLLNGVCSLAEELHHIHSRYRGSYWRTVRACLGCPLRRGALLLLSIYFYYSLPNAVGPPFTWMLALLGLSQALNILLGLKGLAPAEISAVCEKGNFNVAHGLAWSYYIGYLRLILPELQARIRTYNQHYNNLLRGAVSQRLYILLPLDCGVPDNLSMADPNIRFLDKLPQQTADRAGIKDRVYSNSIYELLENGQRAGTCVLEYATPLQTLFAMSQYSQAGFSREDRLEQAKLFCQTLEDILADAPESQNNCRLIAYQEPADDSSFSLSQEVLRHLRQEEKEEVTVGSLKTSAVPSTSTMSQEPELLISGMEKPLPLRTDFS

SMILES | EC50 [nM]
Cc1cc(NC(=O)Nc2c[nH]c3cccnc23)cnc1N1CCC(F)(F)CC1 [Compound 146, 1-(6-(4,4-difluoropiperidin-1-yl)-5-methylpyridin-3-yl)-3-(1H-pyrrolo[3,2-b]pyridin-3-yl)urea] | 1000 to 5000
COc1cnc2[nH]cc(NC(=O)Nc3cnc(N4CCC(F)(F)CC4)c(C)c3)c2c1 [Compound 168, 1-(6-(4,4-difluoropiperidin-1-yl)-5-methylpyridin-3-yl)-3-(5-methoxy-1H-pyrrolo[2,3-b]pyridin-3-yl)urea] | 200 to 1000
N#Cc1cc(NC(=O)Nc2c[nH]c3ncc(Cl)cc23)cnc1C1CCC(F)(F)CC1 [Compound 151, 1-(5-chloro-1H-pyrrolo[2,3-b]pyridin-3-yl)-3-(5-cyano-6-(4,4-difluorocyclohexyl)pyridin-3-yl)urea] | 200 to 1000
O=C(Nc1ccc(C2CC(F)(F)C2)c(F)c1)Nc1c[nH]c2cccnc12 [Compound 239, 1-(4-(3,3-difluorocyclobutyl)-3-fluorophenyl)-3-(1H-pyrrolo[3,2-b]pyridin-3-yl)urea] | 200 to 1000
CC(O)c1cc(NC(=O)Nc2c[nH]c3ncc(F)cc23)cnc1N1CCC(F)(F)CC1 (centres unmarked) [Compound 138, 1-(6-(4,4-difluoropiperidin-1-yl)-5-(1-hydroxyethyl)pyridin-3-yl)-3-(5-fluoro-1H-pyrrolo[2,3-b]pyridin-3-yl)urea] | 1000 to 5000
COc1cnc2[nH]cc(NC(=O)Nc3cnc(C4CCC(F)(F)CC4)c(C)c3)c2c1 [Compound 174, 1-(6-(4,4-difluorocyclohexyl)-5-methylpyridin-3-yl)-3-(5-methoxy-1H-pyrrolo[2,3-b]pyridin-3-yl)urea] | 1000 to 5000
O=C(Nc1cnc(Cl)c(C2CCC(F)(F)CC2)c1)Nc1c[nH]c2cccnc12 [Compound 214, 1-(6-chloro-5-(4,4-difluorocyclohexyl)pyridin-3-yl)-3-(1H-pyrrolo[3,2-b]pyridin-3-yl)urea] | 5000 to 100000
Cc1cc(NC(=O)Nc2c[nH]c3ncc(F)cc23)cnc1N1CCC2(CC1)CC2 [Compound 192, 1-(5-fluoro-1H-pyrrolo[2,3-b]pyridin-3-yl)-3-(5-methyl-6-(6-azaspiro[2.5]octan-6-yl)pyridin-3-yl)urea] | 40 to 200
O=C(Nc1cnc(N2CCC3(CC2)CCC(F)(F)CO3)c(Cl)c1)Nc1c[nH]c2cccnc12 [Compound 207, 1-(5-chloro-6-(3,3-difluoro-1-oxa-9-azaspiro[5.5]undecan-9-yl)pyridin-3-yl)-3-(1H-pyrrolo[3,2-b]pyridin-3-yl)urea] | 5000 to 100000
COc1cc(NC(=O)Nc2c[nH]c3ncc(F)cc23)cnc1C1CCC(F)(F)CC1 [Compound 164, 1-(6-(4,4-difluorocyclohexyl)-5-methoxypyridin-3-yl)-3-(5-fluoro-1H-pyrrolo[2,3-b]pyridin-3-yl)urea] | 200 to 1000
N#Cc1cc(NC(=O)Nc2c[nH]c3c(F)cncc23)ccc1C1CCC(F)(F)CC1 [Compound 149, 1-(3-cyano-4-(4,4-difluorocyclohexyl)phenyl)-3-(7-fluoro-1H-pyrrolo[3,2-c]pyridin-3-yl)urea] | 200 to 1000

Same assay, conditions: 2′3′cGAMP 15 μM, 24 h, numeric bounds

SMILES | EC50 [nM]
CS(=O)(=O)n1cc(NC(=O)Nc2ccc(C3CCC(F)(F)CC3)nc2)c2cc(F)cnc21 [Compound 197, 1-(6-(4,4-difluorocyclohexyl)pyridin-3-yl)-3-(5-fluoro-1-(methylsulfonyl)-1H-pyrrolo[2,3-b]pyridin-3-yl)urea] | > 30000
Cn1cc(-n2cc(NC(=O)Nc3ccc(C4CCC(F)(F)CC4)nc3)c3cc(F)cnc32)cn1 [Compound 125, 1-(6-(4,4-difluorocyclohexyl)pyridin-3-yl)-3-(5-fluoro-1-(1-methyl-1H-pyrazol-4-yl)-1H-pyrrolo[2,3-b]pyridin-3-yl)urea] | > 30000
O=C(Nc1cnc(N2CC(F)(F)C2)c(Cl)c1)Nc1c[nH]c2cccnc12 [Compound 242, 1-(5-chloro-6-(3,3-difluoroazetidin-1-yl)pyridin-3-yl)-3-(1H-pyrrolo[3,2-b]pyridin-3-yl)urea] | > 10000
